These results are taken from patent US20060252798A1, “Metal ion chelators and therapeutic use thereof” (priority 2003, published 2006).

Each structure is given as a SMILES string.

One data set deals with M109 lung carcinoma. The data set can be described thus: Inhibition of M109 lung carcinoma growth in vivo. Also noted: species or system mouse. As to conditions: 6 mg/kg (MTD), day 12. On the procedure:
Inhibition of M109 Lung Cancer Cell Growth by Iron Chelators In Vivo Female CD2F1 mice aged 8-10 weeks old were sc implanted with 1×10^5 M109 cells. The tumour cells were passaged in CD2F1 mice by preparing a brei from the tumour and injecting it sc.^20 Dp44mT was dissolved in 30% (v/v) propylene glycol in saline and injected iv 4 days after tumour engraftment, twice daily for 5 days followed by a “rest period” of 2 days when the animal was not injected. On the twelfth day after tumour implantation, mice were sacrificed using methoxyfluorane and cardiac puncture performed. Blood counts and erythrocyte indices were measured using a Sysmex Blood Counter (Prince of Wales Hospital, Sydney, Australia). Mouse body weight changes during the treatment period were recorded. The tumours were weighed and fixed for histological examination. The experimental groups consisted of eight mice for the control and each treatment (Table 5).
As a relevant positive control, animals were administered Triapine® at its MTD (6 mg/kg). The tumour weight was measured on the twelfth day after the tumour cell implantation.

Data set [1] in a line: Maximum tolerated dose in CD2F1 hybrid mice. The format is in vivo. As to conditions: female, CD2F1, mouse, in vivo, iv. As to the method: BALB/c and DBA/2 mice were obtained from Animal Resources Centre (University of New South Wales (UNSW), Sydney, Australia) and crossed to produce CD2F1 animals (all procedures used were approved by the Animal Ethics Committee, UNSW). Groups of eight female CD2F1 mice (8-10 weeks old) were fed and watered ad-libitum, and injected via the tail vein with compounds being studied in 30% propylene glycol in 0.9% sterile saline, twice a day, 6 h apart, 5 days/week for 2 weeks. The maximum tolerated dose (MTD) was defined as the dose at which 30% of a cohort either died or lost weight in excess of 10%.^19

Data set [2] can be described thus: Mouse weight loss and haematological indices in M109-bearing mice. The data set is classed as in vivo. Particulars: Triapine 6 mg/kg; Mean ± SEM. As to the method: The tumour cells were passaged in CD2F1 mice by preparing a brei from the tumour and injecting it sc.^20 Dp44mT was dissolved in 30% (v/v) propylene glycol in saline and injected iv 4 days after tumour engraftment, twice daily for 5 days followed by a “rest period” of 2 days when the animal was not injected. On the twelfth day after tumour implantation, mice were sacrificed using methoxyfluorane and cardiac puncture performed. Blood counts and erythrocyte indices were measured using a Sysmex Blood Counter (Prince of Wales Hospital, Sydney, Australia). Mouse body weight changes during the treatment period were recorded. The tumours were weighed and fixed for histological examination. The experimental groups consisted of eight mice for the control and each treatment (Table 5).

In data set [3] the test system is SK-N-MC neuroepithelioma cells. The data set can be described thus: MTT cellular proliferation assay, SK-N-MC. As to conditions: Homo sapiens, SK-N-MC; Table 3; 0-25 μM, 72 h, MTT; mean ± SD; read-out: IC50 SK-N-MC neuroepithelioma. The format is cell-based, human. On the procedure: […] […] After this incubation, 0.01 mL of MTT was added to each well and the plates incubated for 2 h at 37° C. The cells were then solubilised by adding 0.1 mL of 10% SDS-50% isobutanol in 0.01 M HCl and the plates then read at 570 nm on a scanning multiwell spectrophotometer (Titertek Multiscan; Beckman Instruments Inc, California). MTT colour formation was directly proportional to the number of viable cells.
The effect of the compounds on the proliferation of SK-N-MC neuroepithelioma cells was examined using the MTT assay (described above).
(§1) Dp2mT served as a negative control.
On the technique in general: Formazan colour is commonly taken as a measure of viable cells.

The next data set relates to SK-Mel-28 melanoma cells. The data set can be described thus: MTT cellular proliferation assay, SK-Mel-28. The format is cell-based, human. Particulars: Homo sapiens, SK-MEL-28, 72 h, Table 3, mean ± SD. As to the method:
The final concentration of the compounds was 0.39-50 μM. […] […] After this incubation, 0.01 mL of MTT was added to each well and the plates incubated for 2 h at 37° C. The cells were then solubilised by adding 0.1 mL of 10% SDS-50% isobutanol in 0.01 M HCl and the plates then read at 570 nm on a scanning multiwell spectrophotometer (Titertek Multiscan; Beckman Instruments Inc, California). MTT colour formation was directly proportional to the number of viable cells.
as §1
(§2) Dp2mT served as a negative control as the methyl group at the 2-position hinders Fe-chelation.

Data set [4] concerns MCF-7 breast cancer cells. The data set can be described thus: MTT cellular proliferation assay, MCF-7. The format is cell-based, human. As to conditions: Homo sapiens, MCF7, 72 h, Table 3; 72 h, MTT; mean ± SD; read-out: IC50 MCF-7 breast cancer. As to the method:
[…] […] […] After this incubation, 0.01 mL of MTT was added to each well and the plates incubated for 2 h at 37° C. The cells were then solubilised by adding 0.1 mL of 10% SDS-50% isobutanol in 0.01 M HCl and the plates then read at 570 nm on a scanning multiwell spectrophotometer (Titertek Multiscan; Beckman Instruments Inc, California). MTT colour formation was directly proportional to the number of viable cells.
as §1, §2

For `NC(=S)NN=Cc1ncccc1N` [Triapine, 3-aminopyridine-2-carboxaldehyde thiosemicarbazone], the tumour weight in the data set on M109 lung carcinoma is 10 % of the control. The molecule further showed an MTD at 2 weeks in data set [1] of 6 mg/kg. Moreover, in data set [2], the Body weight loss turned out to be 5.3 ± 0.4 g, the Haematocrit amounted to 0.28 ± 0.01, the Haemoglobin amounted to 8.6 ± 0.5 g/dL and the Platelets was 976 ± 171 10^9/L. In data set [2], the RBC is 6.1 ± 0.4 10^12/L and the WBC is 1.4 ± 0.3 10^9/L. The IC50 in data set [3] came to 260 nM. Further, in the data set with SK-Mel-28 melanoma cells, the IC50 worked out at 2600 ± 600 nM. In addition, in data set [4], the IC50 amounted to 3000 ± 1500 nM.

As usually defined, the MTD is the highest dose tested that stayed within the study's limit of toxicity. Read a high MTD as a wide tolerated range. A word on the IC50: it is the midpoint of a concentration-inhibition curve.
